Where “and” joins values, the source holds several entries; their conditions need not be identical. Equal entries are not always repeated.
What was measured:
[1] = tested on: Primary Rat Hippocampal Cells; test: Neurite outgrowth assay, primary rat hippocampal cells; type: cell-based; details: MAP-2 immunofluorescence; active if greater than mean DMSO-treated control on the same plate
Description: Hippocampal cells are dissected from the brains of embryonic day 18 rat pups and dissociated with trypsin (1 mg/mL) and trituration. Cells are seeded at 30,000 cells/well in 96-well plates filled with 100 μL MEM and 10% FBS. At 7 days in culture, cells are fixed with 4% paraformaldehyde and immuno-fluorescence is performed.
(§1) Cultures are incubated with normal horse serum (1:50; Vector Labs) for about 20 min, rinsed and then incubated with primary antibody, microtubule associated-protein 2 (anti-mouse MAP-2; 1:1000; Chemicon) for about 2 h at about RT. Following primary antibody, cultures are rinsed and incubated with fluorescein anti-mouse IgG (rat absorbed; 1:50; Vector Labs) for about 1 h. After fluorescein incubation, the cultures are rinsed and read in PBS on a fluorescent plate reader (excitation: 485 nm; emission: 530 nm). […] The response to test compound is reported as percent of DMSO-treated control.

[2] = tested on: Dorsal Root Ganglion (DRG); test: Dorsal Root Ganglion (DRG) culture, neurite outgrowth; type: cell-based, rat; set-up: key: +: Positive results for each experiment; −: Negative results for each experiment; details: test compound 50-250 nM; neurite outgrowth examined days 1-5; positive if neurites of ≧1 diameter of the DRG; one symbol per experiment
Description: DRG are dissected from newborn or 1-day-old CD rats and placed into PBS on ice. After rinsing twice with sterile plating medium, DRG are transferred to empty wells of a 6-well plate coated with polyornithine/laminin (Becton Dickinson Labware) using #7 curved forceps. Three ml/well of plating medium are then added very gently, so as not to disturb the DRG. Plating medium is Leibovitz's L-15 medium (Gibco), plus 0.6% glucose, 33 mM KCl, 10% FCS, 10 mM Hepes and penicillin/streptomycin/glutamine. After overnight incubation at about 37° C. in 5% CO2, this medium is replaced with 3 mL/well of assay medium [Leibovitz's L-15 medium plus 0.6% glucose, 1% FCS, 1% N-2 supplement (Gibco), 10 μM ara-C, 10 mM Hepes, and penicillin/streptomycin/glutamine] containing either vehicle (DMSO, 1/200,000), positive control (24 ng/mL NGF) or test compound (50-250 nM). All media are prepared fresh daily. DRG are microscopically examined for neurite outgrowth on days 1-5.

[3] = tested on: Human M17 Neuroblastoma Cells; test: Neurite outgrowth assay, M17 neuroblastoma cells; type: cell-based; details: MAP-2 immunofluorescence; active if greater than mean DMSO-treated control on the same plate
Description: M17 human neuroblastoma cells are cultured in 1:1 ratio of EMEM and Hams's F12 with 1×NEM and 10% FBS. The culture media contains 1×PSN antibiotic and is exchanged every other day, and the cells are passed in log phase near confluence.
as §1

facial nerve = test: Rat facial nerve compression model; type: in vivo; details: p.o. about 20 mg/kg twice a day for 15 days; compared to vehicle and internal control; FIG. 1
Description: In this model, compressing the facial nerve causes paralysis of the whisker muscle on that side of the face. The untreated facial nerve on the other side functions as an internal control. […] The whisker movement recovery rate on the paralyzed side compared to the vehicle and internal control is shown in this FIGURE.
Long-Evans rats are anesthetized under ketamine (60 mg/kg)/xylazine (6 mg/kg). The facial nerve is exposed and mechanically compressed with forceps near the stylomastoid foramen unilaterally with the opposite, non-lesioned side serving as an internal control. […] Rats received test compound p.o. at about 20 mg/kg twice a day for 15 days after the surgery. Control rats received vehicle only. Three to eight rats are tested in each group. Restoration of whisker movement after the treatment with compounds of the present invention is recorded at different post-operative time points daily, up to two weeks, and is shown in FIG. 1.

[4] = tested on: PC12 cells and sensory ganglia; details: cultures of PC12 cells and sensory ganglia; Lyons et al. 1994; cited from earlier work

Row | Compound | Rat Hippocampal Cell Response [1] | M17 Cell Response [3] | further results
1 | CCC(C)(C)C(=O)C(=O)N1CCC[C@H]1C(=O)NNC(=O)[C@@H]1CCCN1C(=O)C(=O)C(C)(C)CC [Compound 24] | 119% of DMSO-treated control and 104% of DMSO-treated control and 108% of DMSO-treated control | 123% of DMSO-treated control | DRG [2]: + and −
2 | CCC(C)(C)C(=O)C(=O)N1CCC[C@H]1C(=O)NNC(=O)CCc1cccnc1 [Compound 32] |  | 103% of DMSO-treated control | 
3 | O=C(NCc1cccnc1)c1ncoc1[C@@H]1CCCN1S(=O)(=O)Cc1ccccc1 [Compound 3] |  |  | DRG [2]: −
4 | CCC(C)(C)C(=O)C(=O)N1CCCC[C@H]1C(=O)NNC(=O)CCc1cc(OC)c(OC)c(OC)c1 [Compound 37] | 130% of DMSO-treated control | 111% of DMSO-treated control | 
5 | COC(=O)C(=O)N1CCCC1c1nnc([C@@H]2CCCN2C(=O)C(=O)OC)o1 (some centres unmarked) [Compound 51] | 107% of DMSO-treated control |  | 
6 | CCC(C)(C)C(=O)C(=O)N1CCCC1C(=O)NNC(=O)[C@H]1CCCN1C(=O)C(=O)C(C)(C)CC (some centres unmarked) [Compound 63] | 110% of DMSO-treated control |  | 
7 | CCC(C)(C)C(=O)C(=O)N1CSCC1c1nnc([C@@H]2CSCN2C(=O)C(=O)C(C)(C)CC)o1 (some centres unmarked) [Compound 58] | 142% of DMSO-treated control |  | 
8 | CCC(C)(C)C(=O)C(=O)N1CCC[C@H]1c1nnc(-c2cccnc2)o1 [Compound 60] | 114% of DMSO-treated control |  | 
9 | CCC(C)(C)C(=O)C(=O)N1CCCCC1c1nnc([C@@H]2CCCCN2C(=O)C(=O)C(C)(C)CC)o1 (some centres unmarked) [Compound 44] |  | 118% of DMSO-treated control | 
10 | CC(C)(C)C(=O)C(=O)N1CCCC1c1nnc([C@@H]2CCCN2C(=O)C(=O)C(C)(C)C)o1 (some centres unmarked) [Compound 62] | 120% of DMSO-treated control |  | 
11 | CCC(C)(C)C(=O)C(=O)N1CC[C@H]1C(=O)NNC(=O)[C@@H]1CCN1C(=O)C(=O)C(C)(C)CC [Compound 26] | 133% of DMSO-treated control |  | 
12 | CCC(C)(C)C(=O)C(=O)N1CCC[C@H]1c1nnc(CCc2cc(OC)c(OC)c(OC)c2)o1 [Compound 35] | 126% of DMSO-treated control | 106% of DMSO-treated control | 
13 | CCC(C)(C)C(=O)C(=O)N1CCC[C@H]1C(=O)NNC(=O)CCc1cc(OC)c(OC)c(OC)c1 [Compound 34] | 113% of DMSO-treated control | 106% of DMSO-treated control | 
14 | CCC(C)(C)C(=O)C(=O)N1CCC[C@H]1c1nnc(CCc2cccnc2)o1 [Compound 33] | 112% of DMSO-treated control | 104% of DMSO-treated control | 
15 | CCC(C)(C)C(=O)C(=O)N1CCC[C@@H]1c1nnc([C@H]2CCCN2C(=O)C(=O)C(C)(C)CC)o1 [Compound 64] | 122% of DMSO-treated control |  | 
16 | CCC(C)(C)C(=O)C(=O)N1CCC[C@H]1c1nc(C(=O)NCc2cccnc2)cs1 [Compound 14] | 116% of DMSO-treated control | 112% of DMSO-treated control and 108% of DMSO-treated control | 
17 | CCC(C)(C)C(=O)C(=O)N1CCC[C@H]1c1nc(CCc2cccnc2)no1 [Compound 31] | 124% of DMSO-treated control | 111% of DMSO-treated control | DRG [2]: + and −

Row | Compound | Rat Hippocampal Cell Response [1] | M17 Cell Response [3] | further results
18 | COc1cc(C(=O)C(=O)N2CCCC2c2nnc([C@@H]3CCCN3C(=O)C(=O)c3cc(OC)c(OC)c(OC)c3)o2)cc(OC)c1OC (some centres unmarked) [Compound 56] | 118% of DMSO-treated control and 116% of DMSO-treated control |  | 
19 | CCC(C)(C)C(=O)C(=O)N1CCCC[C@H]1c1nnc(CCc2cccnc2)o1 [Compound 38] | 129% of DMSO-treated control | 105% of DMSO-treated control | 
20 | O=C(NCc1cccnc1)c1csc([C@@H]2CCCN2C(=O)OCc2ccccc2)n1 [Compound 11] |  |  | DRG [2]: +
21 | CCC(C)(C)C(=O)C(=O)N1CCCC1c1nnc([C@@H]2CCCN2C(=O)C(=O)C(C)(C)CC)o1 (some centres unmarked) [Compound 30] | 161% of DMSO-treated control and 118% of DMSO-treated control and 130% of DMSO-treated control | 112% of DMSO-treated control and 103% of DMSO-treated control | DRG [2]: +, +, +, +, +; Restoration of whisker movement on the paralyzed side (facial nerve): restored more rapidly
22 | CCC(C)(C)C(=O)C(=O)N1CCC[C@H]1c1nnc(C2CCCN2)o1 (some centres unmarked) [Compound 55] | 116% of DMSO-treated control |  | 
23 | O=C(NCc1cccnc1)c1ncoc1[C@@H]1CCCN1C(=O)OCc1ccccc1 [Compound 1] |  | 103% of DMSO-treated control | DRG [2]: −
24 | CCC(C)(C)C(=O)C(=O)N1CCC[C@H]1C(=O)NNC(=O)c1cccnc1 [Compound 59] | 116% of DMSO-treated control |  | 
25 | O=C(C(=O)N1CCCC1c1nnc([C@@H]2CCCN2C(=O)C(=O)c2cccs2)o1)c1cccs1 (some centres unmarked) [Compound 48] | 113% of DMSO-treated control |  | 
26 | O=C(NCc1cccnc1)c1csc([C@@H]2CCCN2S(=O)(=O)Cc2ccccc2)n1 [Compound 13] |  | 102% of DMSO-treated control | DRG [2]: −
27 | O=S(=O)(Cc1ccccc1)N1CCCC1c1nnc([C@@H]2CCCN2S(=O)(=O)Cc2ccccc2)o1 (some centres unmarked) [Compound 54] | 113% of DMSO-treated control |  | 
28 | O=C(OCc1cccnc1)c1ncoc1[C@@H]1CCCN1C(=O)OCc1ccccc1 [Compound 4] | 111% of DMSO-treated control and 123% of DMSO-treated control | 134% of DMSO-treated control and 111% of DMSO-treated control | DRG [2]: +
29 | CCC(C)(C)C(=O)C(=O)N1CCC[C@H]1C(=O)NNC(=O)[C@@H]1CCCN1C(=O)OCc1ccccc1 [Compound 50] | 110% of DMSO-treated control |  | 
30 | CCC(C)(C)C(=O)C(=O)N1CCC[C@H]1c1nc(COc2cccnc2)cs1 [Compound 19] | 109% of DMSO-treated control | 110% of DMSO-treated control | 
31 | CCC(C)(C)C(=O)C(=O)N1CCCC[C@H]1C(=O)NNC(=O)[C@@H]1CCCCN1C(=O)C(=O)C(C)(C)CC [Compound 25] | 108% of DMSO-treated control | 111% of DMSO-treated control | 
32 | CCC(C)(C)C(=O)C(=O)N1CCCC[C@H]1c1nnc(CCc2cc(OC)c(OC)c(OC)c2)o1 [Compound 39] |  | 112% of DMSO-treated control | 
33 | C=CC[C@@H]1/C=C(\C)C[C@H](C)C[C@H](OC)[C@H]2O[C@@](O)(C(=O)C(=O)N3CCCC[C@H]3C(=O)O[C@H](/C(C)=C/[C@@H]3CC[C@@H](O)[C@H](OC)C3)[C@H](C)[C@@H](O)CC1=O)[C@H](C)C[C@@H]2OC [FK506] |  |  | neurotrophic activity [4]: shows neurotrophic activity
34 | CCC(C)(C)C(=O)C(=O)N1CCC1c1nnc([C@@H]2CCN2C(=O)C(=O)C(C)(C)CC)o1 (some centres unmarked) [Compound 52] | 110% of DMSO-treated control |  | 
